{"source": "patent US8822435B2", "about": "“Bisphosphonate compounds” (Warner Chilcott Company, LLC, priority 2009, dated 2014)", "key": {"[1]": {"test": "Urinary recovery of cyclic acetal and conversion to bisphosphonate after IV administration to rats", "type": "in vivo, rat", "details": "for dosed cyclic acetal converted to risedronate: male, Sprague-Dawley", "experimental": "(§1) Male, Sprague-Dawley, rats weighing approximately 200-400 g were studied.\n(§2) All formulations were prepared within approximately 1 hour of dosing.\nGenerally, animals were administered a 1.7 micromole/kg, 2 ml/kg IV dose (tail vein) of the appropriate formulation using a syringe and attached butterfly needle. All animals remained fasted for an additional 4 hours post dose and were returned to ad libitum access to food thereafter.\n(§3) Urine samples were collected into refrigerated plastic conical tubes at approximately 4, 8 and 24 hours post-dose. At the end of each collection period, samples were weighed and transferred to a −70° C. freezer for storage until analyzed.\nThe absorbed risedronate is stable in vivo and is not metabolized. After IV administration of risedronate to rats, about 60% of risedronate binds to bone and about 40% of risedronate dosed is excreted in urine. When risedronate cyclic acetal compounds are administered intravenously to rats, a percentage of the cyclic acetal can remain intact and can be excreted in urine while a percentage of the cyclic acetal can be converted to risedronate in vivo. Assuming risedronate formed in vivo has the similar tissue distribution profile as described above, about 40% of risedronate generated in vivo will be excreted in urine and about 60% of risedronate generated in vivo will bind to bone. Thus, the percentage of the cyclic acetal which is converted to risedronate in vivo is estimated using Formula A: […]\nRisedronate cyclic acetal compounds were administered intravenously in saline (0.9% sodium chloride)."}, "[2]": {"test": "Solubility in water (remark in synthesis example)", "type": "physicochemical", "details": "calcium salt"}, "[3]": {"tested_on": "Sprague Dawley rats (Schenk Model)", "test": "Schenk Model: bone mineral density of proximal tibial metaphysis by DXA", "type": "in vivo, rat", "details": "for D20, 20% > BMD than control / LED (lowest effective dose): SQ once daily for 7 days, rats; for D20, 20% > BMD than control: logistic dose response relationship; for LED (lowest effective dose): significant anti-resorptive dose vs control; for bone density in the rat proximal tibial metaphysis: Schenk Model", "experimental": "The effect of the compounds (Example 62 (trans) and Example 128) on in vivo bone resorption inhibition and mineralization inhibition was evaluated in the Schenk Model, an animal model system known in the field of bone metabolism. The general principles of this model are disclosed in Shinoda et al., Calcif. Tissue Int., 35: 87-99 (1983); and in Schenk et al., Calcif: Tissue Res. 11: 196-214 (1973).\nMale Sprague Dawley rats approximately 6 weeks old with weights ranging between 120 and 150 grams were placed into groups based on body weight, with 4-8 animals per group. All groups received treatment by subcutaneous injection (SQ) once daily for 7 days.\nOn day 7 after the start of dosing, all animals were euthanized via exsanguination under gas anesthesia and/or CO2. The right tibia and femur were dissected free and placed in 70% ethyl alcohol.\nThe proximal metaphysis of the right tibia was analyzed using dual energy x-ray absorptiometry (DXA). This provides information on changes in both cortical and cancellous bone density. The primary end-point for this study was bone mineral density (BMD) in the tibia measured using Hologics QDR-4500 densitometer (Hologics, Inc). Statistical evaluation of data was made using parametric and non-parametric analysis of variance and Fisher's protected t-test to determine a statistically significant effect compared to control animals, defined as the lowest effective (significant anti-resorptive) dose (LED).\nThe dose which increased (BMD) 20% compared to the vehicle group (D20) was calculated via a logistic dose response relationship, which estimates an efficacy value using all animals in the study (Lundy et al., J. Bone Min. Res. 22 (Suppl. 1): S443, (2007))."}, "[4]": {"test": "Urinary recovery / risedronate exposure after intraduodenal (ID) and oral (PO) administration to fasted and fed rats", "type": "in vivo, rat", "details": "for Amount Excreted: Risedronate (risedronate administered): dose 17 micromole/kg, rats", "experimental": "as §1, §2\nThe appropriate test article formulation was administered to each animal as a 17 micromole/kg, 2 mL/kg dose solution in 0.6% methylcellulose/0.2% Tween 80® by oral gavage. Alternatively, animals were dosed with a 17 micromole/kg, 1 mL/kg dose solution in saline through a cannula into the duodenum. Animals in the fasted groups were fasted for approximately 4 hours after dosing and were returned to ad libitum access to food thereafter. Animals in the fed groups had access to food ad libitum for at least 2 hours prior to dosing, and throughout the day post dose.\nas §3\nExample 62 (trans) and risedronate were administered via intraduodenal (ID) and oral administration to fasted and fed rats. Similar to the procedure described above in relation to the IV study, the urine of the rats was collected, and risedronate was recovered from urine. Risedronate exposure following ID and oral administration was calculated as percentage of the recovered risedronate from the dosed cyclic acetal (Formula A), and the results were compared to that from dosing with risedronate, See Table 4."}, "[5]": {"details": "IV, dose 1.7 micromole/kg, rats, % CV in parentheses"}, "[6]": {"details": "after IV administration of risedronate to rats"}}, "note": "Where “and” joins values, the source holds several entries; their conditions need not be identical. Identical values can stand only once.", "data": [{"smiles": "CC(=O)Oc1ccc(C2OP(=O)(O)C(O)(Cc3cccnc3)P(=O)(O)O2)cc1", "note": "(centres unmarked) [Example 28]", "values": [{"measurement": "urinary recovery of the cyclic acetal", "setting": "[1]; rat, in vivo, iv", "result": "very low"}]}, {"smiles": "CCCC(=O)Oc1ccc(C2OP(=O)(O)C(O)(Cc3cccnc3)P(=O)(O)O2)cc1", "note": "(centres unmarked) [Example 29]", "values": [{"measurement": "dosed cyclic acetal converted to risedronate", "setting": "[1]; rat, in vivo, iv", "result": "> 100", "unit": "%"}, {"measurement": "urinary recovery of the cyclic acetal", "setting": "[1]; rat, in vivo, iv", "result": "very low"}]}, {"smiles": "CCCC(=O)Oc1ccc(C2OP(=O)(O)C(O)(Cc3cccnc3)P(=O)(O)O2)cc1F", "note": "(centres unmarked) [Example 30]", "values": [{"measurement": "urinary recovery of the cyclic acetal", "setting": "[1]; rat, in vivo, iv", "result": "very low"}]}, {"smiles": "CC(C)C(=O)Oc1ccc(C2OP(=O)(O)C(O)(Cc3cccnc3)P(=O)(O)O2)cc1", "note": "(stereo not drawn) [Example 33 (trans)]", "values": [{"measurement": "urinary recovery of the cyclic acetal", "setting": "[1]; rat, in vivo, iv", "result": "very low"}]}, {"smiles": "CCOC(=O)Oc1ccc(C2OP(=O)(O)C(O)(Cc3cccnc3)P(=O)(O)O2)cc1", "note": "(centres unmarked) [Example 36]", "values": [{"measurement": "systemic exposure of cyclic acetal and risedronate", "setting": "[1]; rat, in vivo, iv", "result": "both systemic exposure of the cyclic acetal and risedronate"}]}, {"smiles": "CC(C)=CC(=O)Oc1ccc(C2OP(=O)(O)C(O)(Cc3cccnc3)P(=O)(O)O2)cc1F", "note": "(centres unmarked) [Example 47]", "values": [{"measurement": "urinary recovery of the cyclic acetal", "setting": "[1]; rat, in vivo, iv", "result": "very low"}]}, {"smiles": "COC(=O)Oc1ccccc1C1OP(=O)(O)C(O)(Cc2cccnc2)P(=O)(O)O1", "note": "(stereo not drawn) [Example 50 (trans)]", "values": [{"measurement": "systemic exposure of cyclic acetal and risedronate", "setting": "[1]; rat, in vivo, iv", "result": "both systemic exposure of the cyclic acetal and risedronate"}]}, {"smiles": "O=C(Oc1c(F)cccc1C1OP(=O)(O)C(O)(Cc2cccnc2)P(=O)(O)O1)N1CCOCC1", "note": "(centres unmarked) [Example 53]", "values": [{"measurement": "solubility in water", "setting": "[2]", "result": "very low"}]}, {"smiles": "CC(C)OC(=O)Oc1ccccc1C1OP(=O)(O)C(O)(Cc2cccnc2)P(=O)(O)O1", "note": "(stereo not drawn) [Example 62 (trans)]", "values": [{"measurement": "D20, 20% > BMD than control", "setting": "[3]", "result": 5, "unit": "mcg P/kg"}, {"measurement": "LED (lowest effective dose)", "setting": "[3]", "result": 3, "unit": "mcg P/kg"}, {"measurement": "bone density in the rat proximal tibial metaphysis", "setting": "[3]", "result": "efficacious"}, {"measurement": "risedronate release rate into the bloodstream vs risedronate", "setting": "[1]; rat, in vivo, iv", "result": "slower"}, {"measurement": "systemic exposure of cyclic acetal and risedronate", "setting": "[1]; rat, in vivo, iv", "result": "both systemic exposure of the cyclic acetal and risedronate"}]}, {"smiles": "CC(C)OC(=O)Oc1ccc(C2OP(=O)(O)C(O)(Cc3cccnc3)P(=O)(O)O2)c(F)c1", "note": "(centres unmarked) [Example 63]", "values": [{"measurement": "urinary recovery of the cyclic acetal", "setting": "[1]; rat, in vivo, iv", "result": "very low"}]}, {"smiles": "O=C(Cc1ccccc1)Oc1ccc(C2OP(=O)(O)C(O)(Cc3cccnc3)P(=O)(O)O2)cc1", "note": "(stereo not drawn) [Example 79 (trans)]", "values": [{"measurement": "Amount of Cyclic Acetal Excreted", "setting": "[1]; [5]", "result": "0.3 (220) % of administered dose excreted in urine"}]}, {"smiles": "O=C(Cc1ccccc1)Oc1ccc(C2OP(=O)(O)C(O)(Cc3cccnc3)P(=O)(O)O2)cc1", "note": "(centres unmarked) [Example 79]", "values": [{"measurement": "urinary recovery of the cyclic acetal", "setting": "[1]; IV, rats, rapid rate of conversion to risedronate in vivo", "result": "very low"}]}, {"smiles": "O=C1OCCN1C(=O)Oc1ccccc1C1OP(=O)(O)C(O)(Cc2cccnc2)P(=O)(O)O1", "note": "(centres unmarked) [Example 82]", "values": [{"measurement": "dosed cyclic acetal converted to risedronate", "setting": "[1]; rat, in vivo, iv", "result": 43, "unit": "%"}]}, {"smiles": "CC1(C)CN(C(=O)Oc2cc(F)c(C3OP(=O)(O)C(O)(Cc4cccnc4)P(=O)(O)O3)c(F)c2)C(=O)O1", "note": "(centres unmarked) [Example 83]", "values": [{"measurement": "urinary recovery of the cyclic acetal", "setting": "[1]; rat, in vivo, iv", "result": "very low"}]}, {"smiles": "CCCC(=O)Oc1ccccc1C1OP(=O)(O)C(O)(Cc2cccnc2)P(=O)(O)O1", "note": "(centres unmarked) [Example 105]", "values": [{"measurement": "urinary recovery of the cyclic acetal", "setting": "[1]; rat, in vivo, iv", "result": "very low"}]}, {"smiles": "CC(C)OC(=O)Oc1ccccc1C1OP(=O)(O)C(O)(Cn2ccnc2)P(=O)(O)O1", "note": "(centres unmarked) [Example 128, Carbonic acid isopropyl ester 2-(2,3,4-trihydroxy-3-imidazol-1-ylmethyl-2,4-dioxo-2λ^5,4λ^5-[1,5,2,4]dioxadiphosphinan-6-yl)-phenyl ester]", "values": [{"measurement": "D20, 20% > BMD than control", "setting": "[3]", "result": 0.5, "unit": "mcg P/kg"}, {"measurement": "LED (lowest effective dose)", "setting": "[3]", "result": 1, "unit": "mcg P/kg"}, {"measurement": "bone density in the rat proximal tibial metaphysis", "setting": "[3]", "result": "efficacious"}]}, {"smiles": "O=P(O)(O)C(O)(Cc1cccnc1)P(=O)(O)O", "note": "[Risedronate, risedronate, reference compound]", "values": [{"measurement": "Amount Excreted: Risedronate (risedronate administered)", "setting": "[4]; ID fed, % CV in parentheses", "result": "0.012 (50) % of administered dose excreted in urine"}, {"measurement": "Amount Excreted: Risedronate (risedronate administered)", "setting": "[4]; Oral fast", "result": "0.13 % of administered dose excreted in urine"}, {"measurement": "Amount Excreted: Risedronate (risedronate administered)", "setting": "[4]; Oral fed", "result": "0.003 % of administered dose excreted in urine"}, {"measurement": "risedronate exposure with food compared to fasted rats", "setting": "[4]; fed rats", "result": "extensive reduction"}, {"measurement": "risedronate exposure as estimated by urinary recovery", "setting": "[4]; orally to fasted rats", "result": "less than 1 % of dose"}, {"measurement": "D20, 20% > BMD than control", "setting": "[3]", "result": 1.8, "unit": "mcg P/kg"}, {"measurement": "LED (lowest effective dose)", "setting": "[3]", "result": 1, "unit": "mcg P/kg"}, {"measurement": "Amount Excreted: Risedronate (risedronate administered)", "setting": "[1]; [5]", "result": "36 (13) % of administered dose excreted in urine and 39 % of administered dose excreted in urine"}, {"measurement": "risedronate binds to bone", "setting": "[1]; [6]", "result": "about 60%"}, {"measurement": "risedronate dosed excreted in urine", "setting": "[1]; [6]", "result": "about 40%"}]}, {"smiles": "O=P(O)(O)C(O)(Cn1ccnc1)P(=O)(O)O", "note": "[Zoledronic acid, (1-hydroxy-2-imidazol-1-yl)-ethyl-1,1-bisphosphonic acid, reference compound]", "values": [{"measurement": "D20, 20% > BMD than control", "setting": "[3]", "result": 0.1, "unit": "mcg P/kg"}, {"measurement": "LED (lowest effective dose)", "setting": "[3]", "result": 0.1, "unit": "mcg P/kg"}]}]}
